{
  "source": "patent US20080176914A1",
  "about": "“CRYSTAL FORM OF 2-(3-FLUORO-4-HYDROXYPHENYL)-7-VINYL-1,3-BENZOXAZOL-5-OL” (WYETH, priority 2006, published 2008)",
  "test": "Conversion of the crystal form on suspending and stirring in solvent at room temperature",
  "format": "physicochemical",
  "text": "The anhydrate crystal form (Form B) can be converted to other crystal forms under suitable conditions.",
  "data": [
    {"molecule": "C=Cc1cc(O)cc2nc(-c3ccc(O)c(F)c3)oc12", "note": "[Form B, 2-(3-fluoro-4-hydroxyphenyl)-7-vinyl-1,3-benzoxazol-5-ol]", "values": [
      {"measurement": "crystal form obtained after suspending and stirring in ethanol", "setting": "suspended and stirred in ethanol at room temperature for three days", "result": "another anhydrate crystal form is obtained"},
      {"measurement": "crystal form obtained after suspending and stirring in methanol", "setting": "suspended and stirred in methanol at room temperature for one day", "result": "another anhydrate crystal form is obtained"},
      {"measurement": "crystal form obtained after suspending and stirring in water", "setting": "suspended and stirred in water at room temperature for three days", "result": "a hydrate crystal form is obtained"}
    ]}
  ]
}
